Test system: Sinapis arvensis
Test: Weed action preemergence
Assay type: in vivo
Settings: dose of 1 kg of active substance or less per hectare, visual assessment after 3 to 4 weeks vs untreated controls
Excerpt: Seeds of mono- and dicotyledonous weed plants are put into sandy loam soil in cardboard pots and covered with soil. The compounds according to the invention in the form of wettable powders or emulsion concentrates are then applied to the surface of the covering soil as an aqueous suspension or emulsion with a water application rate of 600 to 800 l/ha after conversion in a dose of 1 kg of active substance or less per hectare after conversion. After the treatment, the pots are placed in a greenhouse and kept under good growth conditions for the weeds. The visual assessment of the plants or emergence damage is carried out after the emergence of the test plants after a test period of 3 to 4 weeks in comparison with untreated controls. In this case, for example, the compounds of Example Nos. 5, 33 and 19 show an at least 80% action against Stellaria media, Lolium multiflorum and Amaranthus retroflexus. The compounds of Example Nos. 2 and 8 show an at least 90% action against Amaranthus retroflexus, Stellaria media and Setaria viridis. The compounds of Example Nos. 2 and 18 show a 100% action against Amaranthus retroflexus and Sinapis arvensis.

SMILES: CS(=O)(=O)c1ccc(C(=O)C2C(=O)CCCC2=O)c(Cl)c1COc1ccccc1 [Example 2, 2-(2-chloro-4-methylsulfonyl-3-phenoxymethylbenzoyl)cyclohexane-1,3-dione]
- action against Sinapis arvensis: 100%

Reference: patent US6376429B1, “Benzoylcyclohexanediones, process for their preparation and their use as herbicides and plant growth regulators” (Hoechst Schering AgrEvo GmbH, priority 1998, dated 2002)
